Test results as given in BindingDB's records for doi:10.1021/jm051059p (Merck Frosst Centre For Therapeutic Research, 2006).

Target: T1, Cathepsin K (Oryctolagus cuniculus, UniProt P43236)
T1 sequence (P43236 whole entry): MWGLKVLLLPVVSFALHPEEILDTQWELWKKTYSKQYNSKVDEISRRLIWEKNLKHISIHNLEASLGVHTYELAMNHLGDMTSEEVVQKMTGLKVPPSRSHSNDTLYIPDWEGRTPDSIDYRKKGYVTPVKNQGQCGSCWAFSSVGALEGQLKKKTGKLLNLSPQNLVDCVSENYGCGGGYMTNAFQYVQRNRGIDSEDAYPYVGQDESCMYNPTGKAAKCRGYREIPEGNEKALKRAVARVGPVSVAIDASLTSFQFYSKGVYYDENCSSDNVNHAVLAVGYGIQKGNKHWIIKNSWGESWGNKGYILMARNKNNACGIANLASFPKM
Assay: Enzyme Inhibition Assay
Experimental: Prior to the addition of substrate, different concentrations of the inhibitor ranging from 100 uM to 0.2 nM were preincubated for 15 min with enzyme to allow the establishment of the enzyme-inhibitor complex. The proteolytic cleavage of N-acyl aminocoumarins by cathepsins was conducted in 96-well plate format and the plate read using a Spectramax (Molecular Devices) plate reader. The excitation wavelength was 355 nm and the emission wavelength was 460 nm for peptidyl-AMC substrates. The percent inhibition of the reaction was calculated from a control reaction containing only vehicle. IC50 curves were generated by fitting percent inhibition values to a four parameter logistic model (SOFTMAX PRO, Molecular Devices).

Row | SMILES | IC50 (pH 5.5, 22 °C) | IC50
1 | Cc1ccc(SC[C@@H]2CCCC[C@H]2C(=O)NCC#N)cc1 [racemic mixture] | 100 nM | 
2 | CSc1ccc(/C=C\[C@@H]2CCCC[C@H]2C(=O)NCC#N)cc1 (racemic) [racemic mixture] | 0.5 nM | 
3 | N#CCNC(=O)[C@@H]1CC(F)(F)CC[C@H]1c1ccccc1-c1ccc(F)cc1 (racemic) [racemic mixture] |  | 19 nM
4 | CSc1ccc(CC[C@@H]2CCCC[C@H]2C(=O)NCC#N)cc1 [racemic mixture] | 1.7 nM | 
5 | N#CCNC(=O)[C@@H]1CCCC[C@H]1CSc1ccc(N)cc1 (racemic) [racemic mixture] | 100 nM | 
